# Measurements as given in ChEMBL document CHEMBL5233246, “CT1-3, a novel magnolol-sulforaphane hybrid suppresses tumorigenesis through inducing mitochondria-mediated apoptosis and inhibiting epithelial mesenchymal transition” (Eur J Med Chem, 2020).
# Calls of active or inactive are those of the source. The rule behind the calls is not given here.
# Legend:
# L02 = assay: Cytotoxicity against human L02 cells assessed as reduction in cell viability incubated for 8 hrs by CCK-8 assay; format: toxicity, cell-based; conditions: l02, 8 h
# NCI-H460 = assay: Cytotoxicity against human NCI-H460 cells assessed as reduction in cell viability at 10 uM incubated for 8 hr by CCK-8 assay; format: functional, cell-based
compound,measurement,setting,value
C=CCc1ccc(O)c(-c2cc(CC=C)ccc2OCCSCCCCN=C=S)c1,Activity,L02,Non-Toxic
same,Activity,NCI-H460,inactive
